Consider 17 compounds from patent US20260363243A1 (priority 2022, published 2026).

Where two headings read alike, the source gives them in different places.

The test system of assay [1] is cucumber downy mildew. Briefly: Activity in vivo for inhibiting cucumber downy mildew (potting method, greenhouse).
Excerpt: The test and investigation method refers to a SOP-SC-1098 cucumber downy mildew potting method in the fungicide section of Standard operation Specification for testing biological Activity of pesticides written by Kang Zhuo and Gu Baogen.
The test system of another assay is Phytophthora sojae. Kind of assay: In vitro inhibition of hypha growth of oomycete pathogens (microplate, OD595): Phytophthora sojae. In kind it is cell-based.
The test system of the next assay is Phytophthora capsici. Kind of assay: In vitro inhibition of hypha growth of oomycete pathogens (microplate, OD595): Phytophthora capsici. The class given is cell-based.
In the next assay the test system is Phytophthora nicotianae. Briefly: In vitro inhibition of hypha growth of oomycete pathogens (microplate, OD595): Phytophthora nicotianae. In kind it is cell-based.
Another assay relates to Phytophthora infestans. Briefly: microbe, parasite or virus in culture. The class given is cell-based.
Assay [2] deals with cucumber downy mildew. The settings on record: Table 3, data from Li, J. L. et al. 2020, cited from earlier work.
Setting [3] is: read-out: inhibitory activity on hypha growth.
[4] abbreviates: 0.005 mg/L, re-screening, Table 2.
[5] abbreviates: 0.02 mg/L, re-screening, Table 2.
Where [6] appears, read: 0.078 mg/L, re-screening, Table 2.
[7] abbreviates: 0.312 mg/L, re-screening, Table 2.
Where [8] appears, read: 1.25 mg/L, re-screening, Table 2.
Setting [9] is: Phytophthora nicotianae, read-out: inhibitory activity on hypha growth.

As to `COC(OC)C(C(=O)N1CCC(c2nc(C3=NOC(c4c(F)cccc4F)C3)cs2)CC1)c1ccccc1` (stereo not drawn) [II-10], in the assay with cucumber downy mildew [1] (20 mg/L, Table 1), the Control effect result is on record as “D (45%≤D<60%)”.

On to `CC1(CC(=O)N2CCC(c3nc(C4=NOC(c5c(F)cccc5F)C4)cs3)CC2)OCCO1` (stereo not drawn) [II-11], for which the Control effect result with cucumber downy mildew [1] (1.25 mg/L, Table 1) is given as “D (45%≤D<60%)”; in the assay with cucumber downy mildew [1] (5 mg/L, Table 1) it was “C (60%≤C<75%)”; in the assay with cucumber downy mildew [1] (20 mg/L, Table 1) it was “A (90%≤A≤100%)”.

Consider `CC1COC(C)(CC(=O)N2CCC(c3nc(C4=NOC(c5c(F)cccc5F)C4)cs3)CC2)O1` (stereo not drawn) [II-12], for which the Control effect result in the assay on cucumber downy mildew [1] (5 mg/L, Table 1) was “D (45%≤D<60%)”; in the assay with cucumber downy mildew [1] (20 mg/L, Table 1), “A (90%≤A≤100%)”.

On to `COC(CC(=O)N1CCC(c2nc(C3=NOC(c4c(F)cccc4F)C3)cs2)CC1)OCC(F)(F)F` (stereo not drawn) [II-18], for which the “inhibitory activity compared with OXA” value with Phytophthora sojae (5, 0.5 and 0.05 mg/L, in words) was “comparable to that of the control agent OXA”; with Phytophthora capsici (5, 0.5 and 0.05 mg/L, in words), “comparable to that of the control agent OXA”; with Phytophthora nicotianae (Pythium nicotianae, 5, 0.5 and 0.05 mg/L, in words) it was “comparable to that of the control agent OXA”; in the assay with Phytophthora infestans (5, 0.5 and 0.05 mg/L, in words) it was “comparable to that of the control agent OXA”. Also, the inhibition at 0.005 µg/mL in the assay with Phytophthora sojae (setting [3]) fell in the range of 90 to 100%; in the assay on Phytophthora capsici (setting [3]), 90 to 100%; with Phytophthora nicotianae (setting [9]) it was 75 to 90%; in the assay with Phytophthora infestans (setting [3]) it was 90 to 100%. For the same compound, the inhibition at 0.05 µg/mL in the assay on Phytophthora sojae (setting [3]), with Phytophthora capsici (setting [3]), with Phytophthora nicotianae (setting [9]) and in the assay with Phytophthora infestans (setting [3]) was 90 to 100% throughout. For the same compound, the inhibition at 0.5 µg/mL in the assay on Phytophthora sojae (setting [3]), in the assay on Phytophthora capsici (setting [3]), with Phytophthora nicotianae (setting [9]) and in the assay with Phytophthora infestans (setting [3]) was 90 to 100% throughout. In addition, the inhibition at 5 µg/mL with Phytophthora sojae (setting [3]), in the assay with Phytophthora capsici (setting [3]), in the assay on Phytophthora nicotianae (setting [9]) and with Phytophthora infestans (setting [3]) was 90 to 100% in each case. The “efficacy compared with OXA” value with cucumber downy mildew [1] (0.005 mg/L, in words) was “comparable to that of the control agent OXA”. Also, the Control effect result with cucumber downy mildew [1] (setting [4]) was “A (90%≤A≤100%)”; in the assay with cucumber downy mildew [1] (setting [5]), “A (90%≤A≤100%)”; in the assay with cucumber downy mildew [1] (0.078 mg/L, re-screening), not below 90%; in the assay with cucumber downy mildew [1] (setting [6]) it was “A (90%≤A≤100%)”; in the assay on cucumber downy mildew [1] (setting [7]), “A (90%≤A≤100%)”; in the assay with cucumber downy mildew [1] (0.625 mg/L, Table 3), “A (90% ≤ A ≤ 100%)”. Moreover, the Control effect result is “A (90%≤A≤100%)” in the assay on cucumber downy mildew [1] (1.25 mg/L, Table 1); “A (90%≤A≤100%)” in the assay with cucumber downy mildew [1] (setting [8]); “A (90% ≤ A ≤ 100%)” in the assay with cucumber downy mildew [1] (2.5 mg/L, Table 3); “A (90%≤A≤100%)” in the assay with cucumber downy mildew [1] (5 mg/L, Table 1); “A (90% ≤ A ≤ 100%)” in the assay on cucumber downy mildew [1] (10 mg/L, Table 3); “A (90%≤A≤100%)” with cucumber downy mildew [1] (20 mg/L, Table 1). For the same compound, the “efficacy compared with dimethomorph and cyazofamid” value with cucumber downy mildew [1] (0.078 mg/L, in words) was “superior to that of dimethomorph and cyazofamid”. Besides, the “efficacy compared with oxathiapiprolin” value in the assay on cucumber downy mildew [1] (0.078 mg/L, in words) is “equivalent to that of oxathiapiprolin at the same concentration”. Also, the bactericidal activity entry with cucumber downy mildew [1] (re-screening, in words) is “excellent bactericidal activity”.

For the compound `CCOC(CC(=O)N1CCC(c2nc(C3=NOC(c4c(F)cccc4F)C3)cs2)CC1)OCC(F)(F)F` (stereo not drawn) [II-19], the Control effect result was “B (75%≤B<90%)” in the assay with cucumber downy mildew [1] (setting [4]); “A (90%≤A≤100%)” in the assay with cucumber downy mildew [1] (setting [5]); not below 90% in the assay on cucumber downy mildew [1] (0.078 mg/L, re-screening); “A (90%≤A≤100%)” in the assay on cucumber downy mildew [1] (setting [6]); “A (90%≤A≤100%)” with cucumber downy mildew [1] (setting [7]); “A (90% ≤ A ≤ 100%)” with cucumber downy mildew [1] (0.625 mg/L, Table 3). Also, the Control effect entry with cucumber downy mildew [1] (1.25 mg/L, Table 1) is “A (90%≤A≤100%)”; with cucumber downy mildew [1] (setting [8]), “A (90%≤A≤100%)”; in the assay on cucumber downy mildew [1] (2.5 mg/L, Table 3), “A (90% ≤ A ≤ 100%)”; with cucumber downy mildew [1] (5 mg/L, Table 1), “A (90%≤A≤100%)”; with cucumber downy mildew [1] (10 mg/L, Table 3), “A (90% ≤ A ≤ 100%)”; in the assay on cucumber downy mildew [1] (20 mg/L, Table 1) it was “A (90%≤A≤100%)”. Also, the “efficacy compared with dimethomorph and cyazofamid” value with cucumber downy mildew [1] (0.078 mg/L, in words) was “superior to that of dimethomorph and cyazofamid”. In addition, in the assay with cucumber downy mildew [1] (0.078 mg/L, in words), the “efficacy compared with oxathiapiprolin” value is recorded as “equivalent to that of oxathiapiprolin at the same concentration”. In addition, the bactericidal activity entry with cucumber downy mildew [1] (re-screening, in words) was “excellent bactericidal activity”.

Turning to `O=C(CC1OCCCO1)N1CCC(c2nc(C3=NOC(c4c(F)cccc4F)C3)cs2)CC1` (stereo not drawn) [II-21], the Control effect result was “D (45%≤D<60%)” in the assay with cucumber downy mildew [1] (1.25 mg/L, Table 1); “B (75%≤B<90%)” in the assay with cucumber downy mildew [1] (5 mg/L, Table 1); “A (90%≤A≤100%)” with cucumber downy mildew [1] (20 mg/L, Table 1).

With `O=C(CC1OCCO1)N1CCC(c2nc(C3=NOC(c4c(F)cccc4F)C3)cs2)CC1` (stereo not drawn) [II-22], the Control effect result is reported as “D (45%≤D<60%)” with cucumber downy mildew [1] (5 mg/L, Table 1) and “A (90%≤A≤100%)” in the assay with cucumber downy mildew [1] (20 mg/L, Table 1).

In the case of `O=C(CC1OCCCCO1)N1CCC(c2nc(C3=NOC(c4c(F)cccc4F)C3)cs2)CC1` (stereo not drawn) [II-28], the Control effect result with cucumber downy mildew [1] (5 mg/L, Table 1) was “C (60%≤C<75%)”; in the assay with cucumber downy mildew [1] (20 mg/L, Table 1) it was “C (60%≤C<75%)”.

As for `CC(C)CCC(=O)N1CCC(c2nc(C3=NOC(c4c(F)cccc4F)C3)cs2)CC1` (stereo not drawn) [comparative 1], the values for the Control effect result in the assay with cucumber downy mildew [2] (0.625 mg/L), in the assay with cucumber downy mildew [2] (2.5 mg/L) and in the assay on cucumber downy mildew [2] (10 mg/L) were “E (0% ≤ E < 45%)”, “B (75% ≤ B < 90%)” and “B (75% ≤ B < 90%)”, respectively.

Take `CC/C=C/CC(=O)N1CCC(c2nc(C3=NOC(c4c(F)cccc4F)C3)cs2)CC1` (stereo not drawn) [comparative 2]: the Control effect entry in the assay with cucumber downy mildew [2] (0.625 mg/L) is listed as “D (45% ≤ D < 60%)”; in the assay on cucumber downy mildew [2] (2.5 mg/L), “B (75% ≤ B < 90%)”; with cucumber downy mildew [2] (10 mg/L) it was “A (90% ≤ A ≤ 100%)”.

Regarding `CC/C(C)=C/CC(=O)N1CCC(c2nc(C3=NOC(c4c(F)cccc4F)C3)cs2)CC1` (stereo not drawn) [comparative 3], the Control effect result is given as “E (0% ≤ E < 45%)” with cucumber downy mildew [2] (0.625 mg/L), “C (60% ≤ C < 75%)” in the assay on cucumber downy mildew [2] (2.5 mg/L) and “A (90% ≤ A ≤ 100%)” in the assay on cucumber downy mildew [2] (10 mg/L).

Regarding `O=C(CCO)N1CCC(c2nc(C3=NOC(c4c(F)cccc4F)C3)cs2)CC1` (stereo not drawn) [comparative 4], the Control effect result in the assay on cucumber downy mildew [2] (0.625 mg/L) is listed as “E (0% ≤ E < 45%)”; in the assay on cucumber downy mildew [2] (2.5 mg/L) it was “E (0% ≤ E < 45%)”; with cucumber downy mildew [2] (10 mg/L) it was “D (45% ≤ D < 60%)”.

For `O=C(CC1CCCCC1)N1CCC(c2nc(C3=NOC(c4c(F)cccc4F)C3)cs2)CC1` (stereo not drawn) [comparative 5], the Control effect result with cucumber downy mildew [2] (0.625 mg/L) is listed as “E (0% ≤ E < 45%)”; in the assay on cucumber downy mildew [2] (2.5 mg/L), “D (45% ≤ D < 60%)”; in the assay on cucumber downy mildew [2] (10 mg/L), “A (90% ≤ A ≤ 100%)”.

As to `O=C(CN1CCCCC1)N1CCC(c2nc(C3=NOC(c4c(F)cccc4F)C3)cs2)CC1` (stereo not drawn) [comparative 6], the Control effect result in the assay with cucumber downy mildew [2] (0.625 mg/L), with cucumber downy mildew [2] (2.5 mg/L) and with cucumber downy mildew [2] (10 mg/L) was “E (0% ≤ E < 45%)” throughout.

As to `O=C(CN1CCCC(O)C1)N1CCC(c2nc(C3=NOC(c4c(F)cccc4F)C3)cs2)CC1` (stereo not drawn) [comparative 7], the Control effect result in the assay with cucumber downy mildew [2] (0.625 mg/L), in the assay on cucumber downy mildew [2] (2.5 mg/L) and with cucumber downy mildew [2] (10 mg/L) was “E (0% ≤ E < 45%)” each time.

In the case of `Cc1ccc(-c2c(Cl)nc(C#N)n2S(=O)(=O)N(C)C)cc1` [cyazofamid, reference compound], the Control effect result with cucumber downy mildew [1] (setting [5]) was “E (0%≤E<45%)”; in the assay with cucumber downy mildew [1] (setting [6]), “B (75%≤B<90%)”; in the assay with cucumber downy mildew [1] (setting [7]) it was “A (90%≤A≤100%)”; in the assay with cucumber downy mildew [1] (setting [8]), “A (90%≤A≤100%)”.

Turning to `COc1ccc(C(=CC(=O)N2CCOCC2)c2ccc(Cl)cc2)cc1OC` [dimethomorph, reference compound], the Control effect result in the assay on cucumber downy mildew [1] (setting [5]) was “C (60%≤C<75%)”; in the assay on cucumber downy mildew [1] (setting [6]), “B (75%≤B<90%)”; in the assay with cucumber downy mildew [1] (setting [7]), “A (90%≤A≤100%)”; in the assay with cucumber downy mildew [1] (setting [8]), “A (90%≤A≤100%)”.
